Assay results taken from ChEMBL document CHEMBL1201862, “PubChem BioAssay data set” (2004).
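Briefly, cells in 96-well plates were exposed to five compound concentrations for 48 h, and endpoints were estimated by linear interpolation. GI50 = concentration required for 50% inhibition of growth.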 Calls of active or inactive are those of the source. Cut-off read from the data, not from the text of the source: active = GI50 up to about 1.1 µM and inactive = higher.

Columns and labels:
Assay in all cases: NCI-60 cell line screen, 48 h
[1] = tested on: CAKI-1
[2] = tested on: HCT-15
[3] = tested on: HOP-62
[4] = tested on: HT-29
[5] = tested on: KM-20L2
[6] = tested on: NCI-H460
[7] = tested on: NCI-H522
[8] = tested on: OVCAR-5
[9] = tested on: SF-268
[10] = tested on: SF-295
[11] = tested on: SK-MEL-2
[12] = tested on: SK-MEL-5
[13] = tested on: TK-10
[14] = tested on: RPMI-8226
[15] = tested on: EKVX
[16] = tested on: BT-549
[17] = tested on: Hs-578T
[18] = tested on: MDA-MB-435
[19] = tested on: MDA-N
[20] = tested on: PC-3

SMILES | GI50 [1] | GI50 [2] | GI50 [3] | GI50 [4] | GI50 [5] | GI50 [6] | GI50 [7] | GI50 [8] | GI50 [9] | GI50 [10] | GI50 [11] | GI50 [12] | GI50 [13] | GI50 [14] | GI50 [15] | GI50 [16] | GI50 [17] | GI50 [18] | GI50 [19] | GI50 [20]
O=C(/C=N/c1ccccc1[S-])c1ccco1.O=C(/C=N/c1ccccc1[S-])c1ccco1.[Zn+2] | 10 µM (inactive) | 8.59 µM | 6 µM (inactive) | 18.7 µM (inactive) | 15.3 µM (inactive) | 3.87 µM (inactive) | 10 µM (inactive) | 16.8 µM (inactive) | 17.9 µM (inactive) | 3.78 µM (inactive) | 15.8 µM (inactive) | 16.9 µM (inactive) | 16.7 µM (inactive) |  |  |  |  |  |  | 
COC1(C)CC2N(C(=O)c3ccccc3)N=C(c3ccccc3)CC2(C)O1 (centres undefined) | > 100 µM (inactive) | > 100 µM | > 100 µM (inactive) | > 100 µM (inactive) | > 100 µM (inactive) | 69.5 µM (inactive) | > 100 µM (inactive) | > 100 µM (inactive) | > 100 µM (inactive) | > 100 µM (inactive) | > 100 µM (inactive) | > 100 µM (inactive) |  | 89.5 µM (inactive) |  |  |  |  |  | 
CC(=O)OC1COC(N2C(=O)C(=O)c3c(C)cc(Cl)nc32)C(OC(C)=O)C1OC(C)=O (centres undefined) | > 100 µM (inactive) | > 100 µM | > 100 µM (inactive) | > 100 µM (inactive) | > 100 µM (inactive) | > 100 µM (inactive) |  | > 100 µM (inactive) | > 100 µM (inactive) | > 100 µM (inactive) | > 100 µM (inactive) | > 100 µM (inactive) | > 100 µM (inactive) | > 100 µM (inactive) | > 100 µM (inactive) |  |  |  |  | 
CN(CC(=O)O)S(=O)(=O)c1ccc(Cl)cc1 | > 100 µM (inactive) | > 100 µM |  | > 100 µM (inactive) | > 100 µM (inactive) | > 100 µM (inactive) | > 100 µM (inactive) | > 100 µM (inactive) | > 100 µM (inactive) | > 100 µM (inactive) | > 100 µM (inactive) | > 100 µM (inactive) | > 100 µM (inactive) | > 100 µM (inactive) | > 100 µM (inactive) |  |  |  |  | 
CC(C)C1OC(=O)C=C1Sc1ccccc1 (centres undefined) | > 100 µM (inactive) | > 100 µM | > 100 µM (inactive) | > 100 µM (inactive) |  | > 100 µM (inactive) | > 100 µM (inactive) | > 100 µM (inactive) | > 100 µM (inactive) | > 100 µM (inactive) | > 100 µM (inactive) | > 100 µM (inactive) | > 100 µM (inactive) | > 100 µM (inactive) | > 100 µM (inactive) | > 100 µM (inactive) | > 100 µM (inactive) | > 100 µM (inactive) | > 100 µM (inactive) | > 100 µM (inactive)
COc1ccc2c(c1)CC[C@@H]1[C@@H]2CC[C@]2(C)/C(=N/OCCN3CCCC3)CC[C@@H]12 | 1.75 µM (inactive) | 1.25 µM | 1.98 µM (inactive) | 0.766 µM (active) |  | 1.5 µM (inactive) | 3 µM (inactive) | 2.79 µM (inactive) | 4.07 µM (inactive) | 2.35 µM (inactive) | 1.82 µM (inactive) | 1.9 µM (inactive) | 6.47 µM (inactive) | 1.5 µM (inactive) | 4.57 µM (inactive) | 8.07 µM (inactive) | 2.65 µM (inactive) | 0.91 µM (active) | 1.98 µM (inactive) | 3.85 µM (inactive)
CC(C)(C)c1cc(CC2C(=O)c3ccccc3C2=O)cc(C(C)(C)C)c1O | 3.22 µM (inactive) | 2.9 µM | 2.54 µM (inactive) | 3.13 µM (inactive) |  | 4.48 µM (inactive) | 2.62 µM (inactive) | 11.7 µM (inactive) | 3.44 µM (inactive) | 3.24 µM (inactive) | 3.2 µM (inactive) | 2.7 µM (inactive) | 5.57 µM (inactive) | 0.764 µM (active) | 5.37 µM (inactive) | 3.45 µM (inactive) | 3.94 µM (inactive) | 3.78 µM (inactive) | 7.5 µM (inactive) | 2.7 µM (inactive)
CC(=O)OCc1nc(C#N)c(N)o1 | > 100 µM (inactive) | > 100 µM | > 100 µM (inactive) | > 100 µM (inactive) |  | > 100 µM (inactive) | > 100 µM (inactive) | > 100 µM (inactive) | > 100 µM (inactive) | > 100 µM (inactive) | > 100 µM (inactive) | > 100 µM (inactive) | > 100 µM (inactive) | > 100 µM (inactive) | > 100 µM (inactive) | > 100 µM (inactive) | > 100 µM (inactive) | > 100 µM (inactive) | > 100 µM (inactive) | > 100 µM (inactive)
CSc1ccc(-c2cc(-c3nc4ccccc4[nH]3)no2)cc1 | 23.6 µM (inactive) | 9.62 µM | 34.4 µM (inactive) | 24.8 µM (inactive) |  | 18.4 µM (inactive) | 20.3 µM (inactive) | > 100 µM (inactive) | 32 µM (inactive) | 28.7 µM (inactive) | 20.4 µM (inactive) | 15.9 µM (inactive) | 36.6 µM (inactive) | 24.4 µM (inactive) | 24.7 µM (inactive) | 19.6 µM (inactive) | 37.1 µM (inactive) | 18.5 µM (inactive) | 26.9 µM (inactive) | 32.6 µM (inactive)
